This test concerns the target Aβ1-42 (Homo sapiens, UniProt P05067). The test can be described thus: FRET assay of Aβ1-42 oligomer (ADDL) assembly inhibition. In kind it is biochemical. Conditions: 0.2 μM FITC-Aβ(1-42) and 0.8 μM Aβ(1-42), 37° C., six concentrations from about 10 μM to about 0.03 μM. From the text:
Fluorescence (or Förster) Resonance Energy Transfer (FRET) is a distance-dependent, non-radiative transfer of energy in which the de-excitation of one fluorophore (donor) is coupled to excitation of another fluorophore (acceptor). FRET occurs if (1) the quantum of energy emitted by a donor fluorophore corresponds to an acceptor fluorophore's excitation energy, (2) the orientations of donor and acceptor transition dipoles are nearly parallel and (3) the donor fluorescent emission spectrum overlaps the acceptor absorption spectrum.
In this assay, assembly of Aβ1-42 oligomer formation is monitored by FRET using N-terminal conjugates of fluorescein-Aβ1-42 as both the donor and acceptor fluorophore (fluorescein-fluorescein Ro˜45 Å). […] Inhibition of Aβ1-42 assembly is observed as the absence or attenuation of fluorescein quenching.
FRET and FP assays are performed in 384-well Corning Non-Binding Surface, black, opaque microtiter plates, and the assay buffer consists of 25 mM MOPS-Tris (pH 8.0) with 100 mM MgCl2. The assay volume, containing 0.2 μM FITC-Aβ(1-42) and 0.8 μM Aβ(1-42), is 50 μl and the temperature is 37° C. […] Kinetic traces are collected by recording fluorescence intensity and polarization readings every five minutes over about a three hour time course. […] Positive control reactions contain all buffer components in the absence of added small molecule or antibody reagents. To test for ADDL assembly inhibition, the compound was incubated with the peptide mixture at six concentrations from about 10 μM decreasing to about 0.03 μM.

Aβ1-42, sequence (P05067 672-713 limits assumed): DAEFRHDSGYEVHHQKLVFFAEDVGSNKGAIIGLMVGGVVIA

Usually IC50 stands for the concentration that gives 50% inhibition. Turning to `O=C(N/N=C/c1cc(Cl)cc(Br)c1O)c1ccccc1O` [Compound 108, N′-(3-bromo-5-chloro-2-hydroxybenzylidene)-2-hydroxybenzohydrazide], the half-maximal inhibitory concentration (IC50) was 41.7 µM.

For `C/C(CC(=O)c1ccco1)=N\NC(=O)c1sc2cc(F)ccc2c1Cl` [Compound 4, 3-chloro-6-fluoro-N′-(4-(furan-2-yl)-4-oxobutan-2-ylidene)benzo[b]-thiophene-2-carbohydrazide], the midpoint of inhibition, the IC50, lay at 5.9 µM.

Consider `O=C(N/N=C/c1cc(Cl)ccc1O)c1ccccc1O` [Compound 59, N′-(5-chloro-2-hydroxy-benzylidene)-2-hydroxy-benzohydrazide], for which the IC50 was determined as 6.5 µM.

`O=C(N/N=C(/CC(=O)c1cccs1)C(F)(F)F)c1ccc(Br)cc1` [Compound 27, 4-bromo-N′-(1,1,1-trifluoro-4-oxo-4-(thiophen-2-yl)butan-2-ylidene)benzohydrazide] showed an IC50 of 18.8 µM.

The compound `COc1ccc(C(=O)N/N=C/c2cc(OC)ccc2O)c(O)c1` [Compound 76, 2-hydroxy-N′-(2-hydroxy-5-methoxy-benzylidene)-4-methoxy-benzohydrazide] registered an IC50 of 11.1 µM.

In turn, `COc1ccc(O)c(/C=N/NC(=O)c2c(O)cccc2F)c1` [Compound 95, 2-fluoro-6-hydroxy-N′-(2-hydroxy-5-methoxybenzylidene)benzohydrazide] yielded an IC50 of 26.2 µM.

On to `CCN(CC)c1ccc(/C=N/NC(=O)c2ccccc2O)c(O)c1` [Compound 80, N'-(4-(diethylamino)-2-hydroxy-benzylidene)-2-hydroxy-benzohydrazide], for which the IC50 stood at 14.4 µM.

`CC(C)(C)C(=O)C/C(=N/NC(=O)c1sc2cc(F)ccc2c1Cl)C(F)(F)F` [Compound 12, 3-chloro-6-fluoro-N′-(1,1,1-trifluoro-5,5-dimethyl-4-oxohexan-2-ylidene)benzo[b]thiophene-2-carbohydrazide] yielded an IC50 of 8.6 µM.

On to `O=C(C/C(=N/NC(=O)c1ccccc1NS(=O)(=O)c1ccc(Cl)cc1)C(F)(F)F)c1cccs1` [Compound 16, 4-chloro-N-(2-(2-(1,1,1-trifluoro-4-oxo-4-(thiophen-2-yl)butan-2-ylidene) hydrazinecarbonyl)phenyl)benzenesulfonamide], for which 9.7 µM corresponded to half-maximal inhibition (IC50).

Compound `O=C(N/N=C/c1c(O)cccc1Br)c1ccccc1O` [Compound 45, N′-(2-bromo-6-hydroxybenzylidene)-2-hydroxybenzo-hydrazide] returned an IC50 of 3.3 µM. This IC50 lies about 2.9-fold lower than the previous one.

Regarding `COc1cc(Cl)cc(/C=N/NC(=O)c2ccccc2O)c1O` [Compound 91, N′-(5-chloro-2-hydroxy-3-methoxy-benzylidene)-2-hydroxy-benzohydrazide], the IC50 came out at 22.8 µM.

Compound `COc1ccc(O)c(/C=N/NC(=O)c2cc(C)ccc2O)c1` [Compound 73, 2-hydroxy-N′-(2-hydroxy-5-methoxy-benzylidene)-5-methyl-benzohydrazide] returned an IC50 of 10.4 µM.

Regarding `O=C(C/C(=N/NC(=O)c1sc2ccccc2c1Cl)C(F)(F)F)c1cccs1` [Compound 14, 3-chloro-N′-(1,1,1-trifluoro-4-oxo-4-(thiophen-2-yl)butan-2-ylidene)benzo[b]thiophene-2-carbohydrazide], the IC50 stood at 9.5 µM.

`O=C(C/C(=N/NC(=O)c1sc2cc(F)ccc2c1Cl)C(F)(F)F)c1ccc(Cl)s1` [Compound 23, 3-chloro-N′-(4-(5-chlorothiophen-2-yl)-1,1,1-trifluoro-4-oxobulan-2-ylidene)-6-fluorobenzo[b]thiophene-2-carbohydrazide] gave an IC50 of 16 µM.

`CN1CCN(C(=O)C/C(=N/NC(=O)c2ccccc2O)C(F)(F)F)CC1` [Compound 6, 2-hydroxy-N′-(1,1,1-trifluoro-4-(4-methylpiperazin-1-yl)-4-oxobutan-2-ylidene) benzohydrazide] yielded an IC50 of 7.1 µM. This IC50 lies about 2.3-fold lower than the previous one.

Take `Cc1ccc(/C=N/NC(=O)c2ccc3c(c2)OCO3)c(O)c1` [Compound 116, N′-(2-hydroxy-4-methylbenzylidene)benzo[d][1,3]dioxole-5-carbohydrazide]: the IC50 stood at 50 µM. Compared with the last compound, the IC50 is about 7-fold higher.

The compound `O=C(C/C(=N\NC(=O)c1sc2ccccc2c1Cl)C(F)(F)F)c1ccco1` [Compound 15, 3-chloro-N′-(1,1,1-trifluoro-4-(furan-2-yl)-4-oxobutan-2-ylidene)benzo[b]thiophene-2-carbohydrazide] returned an IC50 of 9.5 µM.

`COc1ccc(O)c(/C=N/NC(=O)c2ccc(-n3c(C)ccc3C)cc2)c1` [Compound 56, 4-(2,5-dimethyl-1H-pyrrol-1-yl)-N′-(2-hydroxy-5-methoxy-benzylidene) benzohydrazide]: the IC50 is 6.1 µM.

In turn, `COc1cccc(-c2ccc(O)c(/C=N/NC(=O)c3ccccc3O)c2)c1` [Compound 48, 2-hydroxy-N′-((4-hydroxy-3′-methoxybiphenyl-3-yl)methylene) benzohydrazide] showed an IC50 of 3.7 µM.

`O=C(N/N=C/c1cc(F)cc(Cl)c1O)c1ccccc1O` [Compound 40, N′-(3-chloro-5-fluoro-2-hydroxybenzylidene)-2-hydroxy-benzohydrazide] registered an IC50 of 2.1 µM.

`CCOc1cccc(/C=N/NC(=O)c2ccccc2O)c1O` [Compound 106, N′-(3-ethoxy-2-hydroxybenzylidene)-2-hydroxybenzohydrazide] had an IC50 of 39.2 µM.

In turn, `Cc1ccc(C(=O)C/C(=N/NC(=O)c2sc3cc(F)ccc3c2Cl)C(F)(F)F)s1` [Compound 10, 3-chloro-6-fluoro-N′-(1,1,1-trifluoro-4-(5-methylthiophen-2-yl)-4-oxobutan-2-ylidene)benzo[b]thiophene-2-carbohydrazide] displayed an IC50 of 8.3 µM.

Consider `NC(=O)c1ccccc1/C=N/NC(=O)c1ccccc1O` [Compound 64, 2-((2-(2-hydroxybenzoyl)hydrazono)methyl)benzamide], for which the IC50 was 7.1 µM. The IC50 values of the last two compounds are within 1.5-fold of each other.

`O=C(N/N=C/c1c(O)ccc2ccccc12)c1ccc(O)cc1O` [Compound 115, 2,4-dihydroxy-N′-((2-hydroxynaphthalen-1-yl)methylene)benzohydrazide] registered an IC50 of 47.6 µM.

Regarding `COc1ccc(O)c(/C=N/NC(=O)c2cc(OC)ccc2O)c1` [Compound 82, 2-hydroxy-N′-(2-hydroxy-5-methoxy-benzylidene)-5-methoxy-benzohydrazide], the IC50 worked out at 15.1 µM.

As for `O=C(N/N=C/c1cc([N+](=O)[O-])ccc1O)c1ccccc1O` [Compound 99, 2-hydroxy-N′-(2-hydroxy-5-nitrobenzylidene)benzohydrazide], 32.5 µM corresponded to half-maximal inhibition (IC50).

The compound `O=C(N/N=C/c1c(O)cccc1O)c1ccccc1O` [Compound 41, N′-(2,6-dihydroxybenzylidene)-2-hydroxy benzohydrazide] displayed an IC50 of 2.3 µM.

Compound `O=C(N/N=C(/CC(=O)N1CCOCC1)C(F)(F)F)c1ccccc1O` [Compound 18, 2-hydroxy-N′-(1,1,1-trifluoro-4-morpholino-4-oxobutan-2-ylidene)benzohydrazide] showed an IC50 of 10.4 µM.

`Cc1csc(C(=O)N/N=C/c2cc(Cl)ccc2O)c1Cl` [Compound 92, 3-chloro-N′-(5-chloro-2-hydroxybenzylidene)-4-methylthiophene-2-carbohydrazide] gave an IC50 of 23.7 µM.

`Cn1nccc1C(=O)C/C(=N/NC(=O)c1ccccc1O)C(F)(F)F` [Compound 9, 2-hydroxy-N′-(1,1,1-trifluoro-4-(1-methyl-1H-pyrazol-5-yl)-4-oxobutan-2-ylidene) benzohydrazide] returned an IC50 of 8.2 µM.

The compound `Cc1cccc(/C=N/NC(=O)c2ccccc2O)c1O` [Compound 96, 2-hydroxy-N′-(2-hydroxy-3-methylbenzylidene)benzohydrazide] registered a half-maximal inhibitory concentration (IC50) of 28.6 µM.

In turn, `Cn1cc(I)c(C(=O)N/N=C/c2c(O)ccc3ccccc23)n1` [Compound 54, N′-((2-hydroxy-naphthalen-1-yl)methylene)-4-iodo-1-methyl-1H-pyrazole-3-carbohydrazide] displayed an IC50 of 5 µM.

`CC(C)(C)c1ccc(O)c(/C=N/NC(=O)c2ccccc2O)c1` [Compound 47, N′-(5-tert-butyl-2-hydroxybenzylidene)-2-hydroxy-benzohydrazide]: it took 3.5 µM to reach half-maximal inhibition (IC50).

Regarding `O=C(N/N=C/c1cc(Br)ccc1O)c1ccccc1O` [Compound 50, N′-(5-bromo-2-hydroxy-benzylidene)-2-hydroxybenzohydrazide], half-maximal inhibition (IC50) was put at 4.1 µM.

Take `C/C(=N\NC(=O)c1cc(C)n[nH]1)c1ccccc1O` [Compound 112, N′-(1-(2-hydroxyphenyl)ethylidene)-3-methyl-1H-pyrazole-5-carbohydrazide]: half-maximal inhibition (IC50) required 45.4 µM. Against the preceding compound, the IC50 is about 11-fold higher.

As to `O=C(C/C(=N\NC(=O)c1sc2cc(F)ccc2c1Cl)C(F)(F)F)c1ccco1` [Compound 31, 3-chloro-6-fluoro-N′-(1,1,1-trifluoro-4-(furan-2-yl)-4-oxobulan-2-ylidene)benzo[b]thiophene-2-carbohydrazide], the IC50 was 30.2 µM.

In the case of `Cc1occc1C(=O)N/N=C/c1cc(Br)cc(Br)c1O` [Compound 49, N′-(3,5-dibromo-2-hydroxy-benzylidene)-2-methylfuran-3-carbohydrazide], half-maximal inhibition (IC50) was put at 3.8 µM. This IC50 is about 7.9-fold lower than that of the compound before.

Consider `CC(C)(C)C(=O)C/C(=N/NC(=O)c1ccccc1O)C(F)(F)F` [Compound 7, 2-hydroxy-N′-(1,1,1-trifluoro-5,5-dimethyl-4-oxohexan-2-ylidene)benzohydrazide], for which half-maximal inhibition (IC50) was put at 7.4 µM.
